{"source": "patent US4175081A", "about": "“5-Substituted thiadiazole ureas” (priority 1977, dated 1979)", "key": {"[1]": {"tested_on": "Yellow foxtail grass (YF)", "test": "Pre-emergence herbicide test", "assay_type": "in vivo, Setaria glauca", "conditions": "Setaria, 336 h, two weeks after treatment", "how_it_was_run": "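Seeds surface-sown in potting soil one day before spraying; compounds applied pre-emergence at 8 or 4 lbs/acre in 38 gallons/acre spray. Pots held in greenhouse with sub-irrigation only. Injury or control rated visually two weeks after treatment.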"}, "[2]": {"tested_on": "Johnson grass (JG)", "test": "Pre-emergence herbicide test", "assay_type": "in vivo, Sorgum helepense", "conditions": "Sorghum halepense, 336 h, two weeks after treatment", "how_it_was_run": "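Pots seeded one day before spraying; compound applied pre-emergence at 8 lbs/acre (or 4 lbs/acre) in 38 gallons/acre spray volume. Sub-irrigated in greenhouse; injury/control rated visually two weeks after treatment.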"}, "[3]": {"tested_on": "Barnyard grass (BG)", "test": "Pre-emergence herbicide test", "assay_type": "in vivo", "conditions": "Echinochloa crus-galli, 336 h, two weeks after treatment", "how_it_was_run": "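Barnyard grass surface-seeded in potting soil and sprayed pre-emergence one day after seeding, at 8 or 4 lb compound/acre in 38 gal/acre spray volume. Pots kept in greenhouse with sub-irrigation only; injury or control rated visually two weeks after treatment.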"}, "[4]": {"tested_on": "Amaranth pigweed (PW)", "test": "Pre-emergence herbicide test", "assay_type": "in vivo, Amaranthus retroflexus", "conditions": "336 h, two weeks after treatment", "how_it_was_run": "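Pigweed was surface-seeded in potted soil one day before spraying at 8 lbs compound per acre, or 4 lbs/acre, in 38 gallons per acre. Pots were kept in the greenhouse with sub-irrigation only; injury or control was rated visually two weeks after treatment.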"}, "[5]": {"tested_on": "Turnip (TP)", "test": "Pre-emergence herbicide test", "assay_type": "in vivo, Brassica sp.", "conditions": "Brassica rapa, pre-emergence, 336 h, two weeks after treatment", "how_it_was_run": "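Turnip (Brassica sp.) seeds were surface sown in 3' plastic pots of potting soil, covered with a thin layer of screened soil, and sub-irrigated in greenhouse trays. Pots were seeded one day ahead of treatment, sprayed pre-emergence under a hood with a fixed nozzle and moving belt, then kept in the greenhouse.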"}, "[6]": {"tested_on": "Bean (BN)", "test": "Pre-emergence herbicide test", "assay_type": "in vivo, Phaseolus vulgaris var. Black Valentine", "conditions": "Phaseolus vulgaris, 336 h, two weeks after treatment", "how_it_was_run": "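Black Valentine bean was seeded in potting soil one day before spraying. Compound was applied pre-emergence at 8 lbs/acre (also 4 lbs/acre) in 38 gallons per acre. Plants were sub-irrigated and injury or control was rated visually after two weeks.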"}, "[7]": {"tested_on": "Johnson grass (JG)", "test": "Post-emergence herbicide test", "assay_type": "in vivo, Sorgum helepense", "conditions": "Sorghum halepense, 336 h, two weeks after treatment", "how_it_was_run": "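Greenhouse pot-grown seedlings sprayed post-emergence at 8 lbs compound per acre (some at 4 lbs/acre) in 38 gallons per acre spray volume. Sub-irrigated thereafter. Injury/control rated visually two weeks after treatment.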"}, "[8]": {"tested_on": "Amaranth pigweed (PW)", "test": "Post-emergence herbicide test", "assay_type": "in vivo, Amaranthus retroflexus", "conditions": "336 h, two weeks after treatment", "how_it_was_run": "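Pot-grown pigweed was sprayed post-emergence at the 1–2 true-leaf stage with compound at rates equivalent to 8 lbs per acre (formulations also prepared for 4 lbs/acre) in 38 gallons per acre, using a hood with fixed nozzle. Plants were sub-irrigated in the greenhouse, and injury or control was rated visually two weeks after treatment.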"}, "[9]": {"tested_on": "Turnip (TP)", "test": "Post-emergence herbicide test", "assay_type": "in vivo, Brassica sp.", "conditions": "Brassica rapa, post-emergence, 336 h, two weeks after treatment", "how_it_was_run": "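A greenhouse post-emergence herbicide test on turnip. Seeds were sown on the surface of potting soil in 3' plastic pots, lightly covered with screened soil and watered from below. Planting was timed so seedlings had 1 or 2 true leaves above the cotyledons at spraying, done in a hood with a fixed nozzle. Control or injury was scored by eye after two weeks.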"}, "[10]": {"tested_on": "Cotton (CT)", "test": "Post-emergence herbicide test", "assay_type": "in vivo, Gossypium hirsutum var. DPL smooth leaf", "conditions": "Gossypium hirsutum, post-emergence, 336 h, two weeks after treatment", "how_it_was_run": "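Cotton (Gossypium hirsutum var. DPL smooth leaf) was grown in 3' plastic pots of potting soil, four seeds per pot, planted at a depth equal to the seed diameter and watered by sub-irrigation. At the stage of expanded cotyledons with the first true leaf 1' long, plants were sprayed post-emergence in a hood with a fixed nozzle over a moving belt. Percent control was rated visually two weeks later.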"}, "[11]": {"tested_on": "Corn (CN)", "test": "Post-emergence herbicide test", "assay_type": "in vivo", "conditions": "Zea mays, 336 h, two weeks after treatment", "how_it_was_run": "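Greenhouse seedlings grown in potting soil and sprayed post-emergence at 8 lbs compound/acre (formulations also made for 4 lbs/acre) in 38 gallons/acre spray volume. Watering by sub-irrigation only. Injury or control rated visually two weeks after treatment.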"}, "[12]": {"tested_on": "Bean (BN)", "test": "Post-emergence herbicide test", "assay_type": "in vivo, Phaseolus vulgaris var. Black Valentine", "conditions": "Phaseolus vulgaris, post-emergence, 336 h, two weeks after treatment", "how_it_was_run": "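Snapbean (Phaseolus vulgaris var. Black Valentine) was tested post-emergence. Four seeds were sown in 3' plastic pots of potting soil at a depth equal to the seed diameter, then sub-irrigated in greenhouse trays. Planting dates were staggered so plants were sprayed once primary leaves had expanded, with the growing point at the primary leaf nodes.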"}, "[13]": {"tested_on": "Sinapis", "test": "Field test, pre-emergence application", "assay_type": "in vivo", "conditions": "reading 0 = no effect, 10 = completely killed, 14 and 20 days", "experimental": "(§1) Tests have also been made for the compound of Example 1 with Sinapis, oats and wheat. This test was conducted according to the following procedure.\nForty rows, 70 feet long, were planted to weeds and crops. Two rows were planted on each bed. Beds were 40 inches apart from center to center. The two rows were about 10 inches apart on each bed. Beds were rolled prior to planting to provide a uniform smooth surface. Soil temperature at a depth of 11/2 inches was 66° F. at time of planting. Post-emergence applications were made by spraying bands across rows 10 feet wide using a self-propelled plot sprayer with a 10 foot boom equipped with Teejet 8001 flat spray nozzle tips and operated at 40 psi. A total of 84 fluid ounces of spray material was applied to three replicates. Each replicate plot was 10 feet wide by 66.67 feet long. […]\n(§2) Eight days after the application, readings were made on the effect of the chemicals on each crop and weed in the post-emergence treatment. A reading of 0 was recorded if no effect was observed; 10 recorded if the plants were completely killed, and readings of 1 to 9 for intermediate kills. A second reading of the post-emergence treatments was made 14 days after the application.\nReadings were made 14 and 20 days after the pre-emergence application."}, "[14]": {"tested_on": "Sinapis", "test": "Field test, post-emergence application", "assay_type": "in vivo", "parameters": "unit not given here", "conditions": "2 lbs/acre, reading 0 = no effect, 10 = completely killed, 8 and 14 days", "experimental": "as §1\nForty rows, 70 feet long, were planted to weeds and crops. Two rows were planted on each bed. Beds were 40 inches apart from center to center. The two rows were about 10 inches apart on each bed. Beds were rolled prior to planting to provide a uniform smooth surface. Soil temperature at a depth of 11/2 inches was 66° F. at time of planting. Post-emergence applications were made by spraying bands across rows 10 feet wide using a self-propelled plot sprayer with a 10 foot boom equipped with Teejet 8001 flat spray nozzle tips and operated at 40 psi. A total of 84 fluid ounces of spray material was applied to three replicates. Each replicate plot was 10 feet wide by 66.67 feet long.\nas §2"}}}
{"smiles": "CNC(=O)Nc1nnc(C(F)(F)F)s1", "note": "[Example 1, 1-Methyl-3-[5-Trifluoromethyl-2-(1,3,4-Thiadiazolyl)] Urea]", "values": [{"measurement": "pest or weed control at 4483.4 g/ha", "setting": "[1]; 4 lb/acre", "result": 80, "unit": "%"}, {"measurement": "pest or weed control at 8966.8 g/ha", "setting": "[1]; 8 lb/acre", "result": 90, "unit": "%"}, {"measurement": "pest or weed control at 4483.4 g/ha", "setting": "[2]; 4 lb/acre", "result": 80, "unit": "%"}, {"measurement": "pest or weed control at 8966.8 g/ha", "setting": "[2]; 8 lb/acre", "result": 70, "unit": "%"}, {"measurement": "pest or weed control at 4483.4 g/ha", "setting": "[3]; 4 lb/acre", "result": 90, "unit": "%"}, {"measurement": "pest or weed control at 8966.8 g/ha", "setting": "[3]; 8 lb/acre", "result": 90, "unit": "%"}, {"measurement": "pest or weed control at 4483.4 g/ha", "setting": "[4]; 4 lb/acre", "result": 90, "unit": "%"}, {"measurement": "pest or weed control at 8966.8 g/ha", "setting": "[4]; 8 lb/acre", "result": 90, "unit": "%"}, {"measurement": "pest or weed control at 4483.4 g/ha", "setting": "[5]; 4 lb/acre", "result": 90, "unit": "%"}, {"measurement": "pest or weed control at 8966.8 g/ha", "setting": "[5]; 8 lb/acre", "result": 100, "unit": "%"}, {"measurement": "pest or weed control at 4483.4 g/ha", "setting": "[6]; 4 lb/acre", "result": 90, "unit": "%"}, {"measurement": "pest or weed control at 8966.8 g/ha", "setting": "[6]; 8 lb/acre", "result": 90, "unit": "%"}, {"measurement": "pest or weed control", "setting": "[7]; 2 lb/acre", "result": 90, "unit": "%"}, {"measurement": "pest or weed control at 4483.4 g/ha", "setting": "[7]; 4 lb/acre", "result": 90, "unit": "%"}, {"measurement": "pest or weed control at 8966.8 g/ha", "setting": "[7]; 8 lb/acre", "result": 100, "unit": "%"}, {"measurement": "pest or weed control at 2241.7 g/ha", "setting": "[8]; 2 lb/acre", "result": 100, "unit": "%"}, {"measurement": "pest or weed control at 4483.4 g/ha", "setting": "[8]; 4 lb/acre", "result": 100, "unit": "%"}, {"measurement": "pest or weed control at 8966.8 g/ha", "setting": "[8]; 8 lb/acre", "result": 100, "unit": "%"}, {"measurement": "pest or weed control at 2241.7 g/ha", "setting": "[9]; 2 lb/acre", "result": 80, "unit": "%"}, {"measurement": "pest or weed control at 4483.4 g/ha", "setting": "[9]; 4 lb/acre", "result": 100, "unit": "%"}, {"measurement": "pest or weed control at 8966.8 g/ha", "setting": "[9]; 8 lb/acre", "result": 100, "unit": "%"}, {"measurement": "pest or weed control at 2241.7 g/ha", "setting": "[10]; 2 lb/acre", "result": 100, "unit": "%"}, {"measurement": "pest or weed control at 4483.4 g/ha", "setting": "[10]; 4 lb/acre", "result": 100, "unit": "%"}, {"measurement": "pest or weed control at 8966.8 g/ha", "setting": "[10]; 8 lb/acre", "result": 100, "unit": "%"}, {"measurement": "pest or weed control", "setting": "[11]; 2 lb/acre", "result": 70, "unit": "%"}, {"measurement": "pest or weed control at 4483.4 g/ha", "setting": "[11]; 4 lb/acre", "result": 100, "unit": "%"}, {"measurement": "pest or weed control at 8966.8 g/ha", "setting": "[11]; 8 lb/acre", "result": 100, "unit": "%"}, {"measurement": "pest or weed control at 2241.7 g/ha", "setting": "[12]; 2 lb/acre", "result": 100, "unit": "%"}, {"measurement": "pest or weed control at 4483.4 g/ha", "setting": "[12]; 4 lb/acre", "result": 100, "unit": "%"}, {"measurement": "pest or weed control at 8966.8 g/ha", "setting": "[12]; 8 lb/acre", "result": 100, "unit": "%"}, {"measurement": "Pre-emergency activity, % control, Sinapis", "setting": "[13]; 1 lb/acre", "result": "10 rating score (0–10 scale)"}, {"measurement": "Pre-emergency activity, % control, Sinapis", "setting": "[13]; 2 lbs/acre", "result": "10 rating score (0–10 scale)"}, {"measurement": "Post-emergence activity, % control, Sinapis", "setting": "[14]", "result": 10}]}
